{
  "source": "ChEMBL document CHEMBL1131489",
  "about": "“Dihydropyrancarboxamides related to zanamivir: a new series of inhibitors of influenza virus sialidases. 2. Crystallographic and molecular modeling study of complexes of 4-amino-4H-pyran-6-carboxamides and sialidase from influenza virus types A and B” (J Med Chem, 1998)",
  "molecular_target": "Neuraminidase (Influenza A virus (A/Puerto Rico/8/1934(H1N1)), UniProt P03468)",
  "sequence (P03468 whole entry)": "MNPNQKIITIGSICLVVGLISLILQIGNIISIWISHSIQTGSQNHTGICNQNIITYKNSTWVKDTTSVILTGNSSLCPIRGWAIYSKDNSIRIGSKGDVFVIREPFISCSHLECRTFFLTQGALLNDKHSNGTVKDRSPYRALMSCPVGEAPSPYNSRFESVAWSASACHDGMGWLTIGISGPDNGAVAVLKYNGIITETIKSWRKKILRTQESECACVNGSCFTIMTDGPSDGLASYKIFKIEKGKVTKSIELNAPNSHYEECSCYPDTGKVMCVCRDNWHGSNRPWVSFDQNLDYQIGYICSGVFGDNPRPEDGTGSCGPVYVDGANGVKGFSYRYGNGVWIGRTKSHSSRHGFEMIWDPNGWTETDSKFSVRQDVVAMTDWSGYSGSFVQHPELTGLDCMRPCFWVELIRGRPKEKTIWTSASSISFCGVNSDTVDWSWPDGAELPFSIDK",
  "data": [
    {"smiles": "CC(=O)N[C@H]1[C@H]([C@H](O)[C@H](O)CO)O[C@](O)(C(=O)O)C[C@@H]1O", "values": [
      {"measurement": "IC50", "result": 1000, "unit": "µM"}
    ]}
  ]
}
